Measurements published in patent US11419869B2, “Dosage forms and regimens for amino acid compounds” (Pliant Therapeutics, Inc., priority 2019, dated 2022).
Blank lines part the entries; values can stand above or below the compound they belong to.

Tests used:
[1] = biological target: recombinant human integrin αvβ6 (Homo sapiens (Human), UniProt P06756+P18564); test: Solid Phase Integrin αvβ6 Binding Assay (Examples B1, B2); details: TGFβ1 LAP ligand, values given in four ranges, read-out: αvβ6 Inhibition IC50 (nM)-range
recombinant human integrin αvβ6, sequence (P06756 31-992): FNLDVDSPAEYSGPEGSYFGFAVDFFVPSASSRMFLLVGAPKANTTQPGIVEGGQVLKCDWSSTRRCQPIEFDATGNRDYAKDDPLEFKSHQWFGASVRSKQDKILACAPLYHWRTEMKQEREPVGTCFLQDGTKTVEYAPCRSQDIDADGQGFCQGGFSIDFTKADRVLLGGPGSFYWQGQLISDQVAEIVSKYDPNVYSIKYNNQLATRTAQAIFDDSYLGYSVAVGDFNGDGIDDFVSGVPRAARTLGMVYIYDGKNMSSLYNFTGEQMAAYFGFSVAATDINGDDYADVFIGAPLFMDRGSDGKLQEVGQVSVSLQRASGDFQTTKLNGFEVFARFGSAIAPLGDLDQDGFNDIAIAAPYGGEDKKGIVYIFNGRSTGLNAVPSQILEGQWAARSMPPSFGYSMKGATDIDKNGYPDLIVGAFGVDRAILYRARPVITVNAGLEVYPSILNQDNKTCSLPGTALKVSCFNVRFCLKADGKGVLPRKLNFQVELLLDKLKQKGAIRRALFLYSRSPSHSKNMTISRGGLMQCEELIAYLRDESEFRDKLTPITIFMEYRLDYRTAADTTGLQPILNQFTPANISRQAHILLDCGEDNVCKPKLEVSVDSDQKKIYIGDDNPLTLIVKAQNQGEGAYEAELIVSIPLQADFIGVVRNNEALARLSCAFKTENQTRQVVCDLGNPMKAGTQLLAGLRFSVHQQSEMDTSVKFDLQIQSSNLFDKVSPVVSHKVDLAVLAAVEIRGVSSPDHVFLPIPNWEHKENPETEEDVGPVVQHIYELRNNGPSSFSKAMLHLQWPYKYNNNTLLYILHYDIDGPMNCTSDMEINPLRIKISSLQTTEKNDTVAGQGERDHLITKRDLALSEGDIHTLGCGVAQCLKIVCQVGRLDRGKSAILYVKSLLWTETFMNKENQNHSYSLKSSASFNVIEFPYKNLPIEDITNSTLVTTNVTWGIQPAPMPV
recombinant human integrin αvβ6, sequence (P18564 22-707): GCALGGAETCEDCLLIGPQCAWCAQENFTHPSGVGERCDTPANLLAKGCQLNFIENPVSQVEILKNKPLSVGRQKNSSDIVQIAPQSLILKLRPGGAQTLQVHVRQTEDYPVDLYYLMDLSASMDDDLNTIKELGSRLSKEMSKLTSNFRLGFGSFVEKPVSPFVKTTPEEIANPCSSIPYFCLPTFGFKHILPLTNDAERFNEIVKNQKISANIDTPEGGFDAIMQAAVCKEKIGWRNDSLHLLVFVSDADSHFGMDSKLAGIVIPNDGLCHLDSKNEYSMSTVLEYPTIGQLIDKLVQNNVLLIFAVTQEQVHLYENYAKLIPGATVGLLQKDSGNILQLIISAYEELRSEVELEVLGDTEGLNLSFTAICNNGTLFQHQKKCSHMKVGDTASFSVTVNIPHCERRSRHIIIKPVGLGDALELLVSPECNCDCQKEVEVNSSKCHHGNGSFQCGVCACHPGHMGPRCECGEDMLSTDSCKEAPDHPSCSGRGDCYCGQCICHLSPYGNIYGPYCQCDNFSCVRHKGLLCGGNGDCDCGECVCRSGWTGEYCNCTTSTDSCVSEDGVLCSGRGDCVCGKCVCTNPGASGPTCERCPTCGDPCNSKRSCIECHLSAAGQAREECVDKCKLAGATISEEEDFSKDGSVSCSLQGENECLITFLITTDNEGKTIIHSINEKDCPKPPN
In short: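 Plates coated with recombinant human αvβ6 (2 μg/mL) compete compound against recombinant TGFβ1 LAP (0.67 μg/mL) in TBS binding buffer with 0.5 mM MnCl2, 2 h at 25 °C. Bound LAP detected with biotin-anti-hLAP and peroxidase-streptavidin; IC50 by four-parameter logistic regression.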

[2] = tested on: Col1a1 expression; test: lung slice Col1a1 expression versus DMSO control slices; details: FIG. 6A; compared to the DMSO vehicle control slices
[3] = tested on: lung Col1a1 expression; test: Precision cut lung slices, chronic bleomycin, versus pirfenidone and nintedanib (Example B10); format: cell-based, mice; details: 7 days culture, vs DMSO vehicle, FIG. 6A
Procedure: (§1) Mice (C57BL/6) were administered 3 U/kg of bleomycin (Teva Pharmaceuticals; North Wales, Pa.) on Day 0 and 1 U/kg of bleomycin on days 14, 28, 42 and 56 via oropharyngeal aspiration while under anesthesia. At day 70, 14 days following the final bleomycin insult, precision cut lung slices were obtained. Following euthanization, 2% low gelling temp agarose was injected into the mouse lungs via the trachea. […] The lobes were then subjected to precision slicing to obtain samples for culture using a microtome (Compresstome VF-300-0Z, Precisionary; Greenville, N.C.). Individual slices were distributed in a multiwell culture plate and cultured for 7 days under control (DMSO) and test compound conditions. The viability of the slices over the course of culturing was confirmed by WST-1 assay of mitochondrial activity.
During the culture period, slices in the control group were treated with DMSO and slices in the test group were treated with a DMSO solution of one of compound 5; nintedanib; pirfenidone; a combination of nintedanib and compound 5; a combination of pirfenidone and compound 5; or the small molecule ALK5 inhibitor. Compound 5 was […] effective to equal or exceed its respective IC50 values at αvβ6 and αvβ1. The small molecule ALK5 inhibitor was analyzed at […] its reported IC50 value. Nintendanib and pirfenidone were analyzed at concentrations 10× their reported therapeutic concentrations.

[4] = tested on: COL1A1 expression; test: Precision cut lung slices from human IPF explants, COL1A1 expression (Example B11); format: cell-based; details: for expression of COL1A1 (treatment alone): PCLS from 5-7 IPF lung samples, seven days, nintedanib 75 nM, pirfenidone 50 μm
From the text: Explanted lung tissue was obtained from human IPF subjects and inflated with agarose as described in the preceding examples. Biopsy cores were obtained from the agarose-inflated lung tissue. The biopsy cores were subjected to precision slicing to obtain several hundred μm thick. Individual slices were distributed in a multiwell culture plate and cultured for […] under control (DMSO) and test compound conditions. The viability of the slices over the course of culturing was confirmed by WST-1 assay of mitochondrial activity.
PCLS from 5-7 idopathic pulmonary fibrosis (IPF) lung tissue samples were cultured for seven days with one of: DMSO; Compound 5 at 200 nM; nintedanib at 75 nM; pirfenidone at 50 μm; a combination of Compound 5 at 200 nM and nintedanib at 75 nM; a combination of Compound 5 at 200 nM and pirfenidone at […]; or an Alk5 inhibitor at 1 μm. […] FIG. 6D is a bar graph showing relative expression of COL1A1 in precision cut lung slices (PCLS) from idopathic pulmonary fibrosis (IPF) lung tissue upon exposure to Comopund 5, clinical standard of care compounds nintedanib (Nin) and pirfenidone (Pirf), and an ALK5 inhibitor, all versus DMSO control.
PCLS from a single IPF lung tissue sample were cultured for seven days with Compound 5 at concentrations of […], 2 nM, 60 nM, 200 nM, and 1 μM, along with 0.1% DMSO control and an Alk5 inhibitor at 1 μM. […] COL1A1 expression is also graphed for the PCLS in the presence of 0.1% DMSO control, and an Alk5 inhibitor at 1 μM.

[5] = treatment of IPF; cited from earlier work
[6] = tested on: Type I Collagen gene Col1a1 expression; test: Precision cut lung slices, mice under acute bleomycin exposure (Example B8); format: cell-based; details: 3 days culture, normalized to DMSO, FIG. 5A
Procedure: Mice (C57BL/6) were administered 3 U/kg of bleomycin (Teva Pharmaceuticals; North Wales, Pa.) on day 0 via oropharyngeal aspiration while under anesthesia. On day 14, precision cut lung slices were obtained. Following euthanization, 2% low gelling temp agarose was injected into the mouse lungs via the trachea. […] The lobes were then subjected to precision slicing to obtain samples for culture using a microtome (Compresstome VF-300-0Z, Precisionary; Greenville, N.C.). Individual slices were distributed in a multiwell culture plate and cultured for 3 days under control (DMSO) and test compound conditions.

[7] = tested on: lung Col1a1 expression; test: Precision cut lung slices, mice under chronic bleomycin exposure (Example B9); format: cell-based; details: 7 days culture, normalized to DMSO, FIG. 5B
Procedure: as §1, with “after” for “following”
During the culture period, slices in the control group were treated with DMSO and slices in the test group were treated with a DMSO solution of one of: the selective antibody αvβ6 inhibitor 3G9; the αvβ1-selective small molecule inhibitor; a combination of the selective antibody αvβ6 inhibitor 3G9 and the αvβ1-selective small molecule inhibitor; compound 5; and the small molecule ALK5 inhibitor. The selective αvβ1 and αvβ6 integrin inhibitors were analyzed at ≥their respective IC90 concentrations for inhibition of TGF-beta activation. […]

SMILES: N#Cc1cnc(N[C@@H](CCN(CCCCc2ccc3c(n2)NCCC3)CCOc2ccc(F)cc2)C(=O)O)nc1 [Compound 138, (S)-2-((5-cyanopyrimidin-2-yl)amino)-4-((2-(4-fluorophenoxy)ethyl) (4-(5,6,7,8-tetrahydro-1,8-naphthyridin-2-yl)butyl)amino) butanoic acid]
IC50 [1]: < 50 nM

SMILES: O=C(O)[C@H](CCN(CCCCc1ccc2c(n1)NCCC2)CCOc1ccc(F)cc1)Nc1ncc(C(F)(F)F)cn1 [Compound 139, (S)-4-((2-(4-fluorophenoxy)ethyl) (4-(5,6,7,8-tetrahydro-1,8-naphthyridin-2-yl)butyl)amino)-2-((5-(trifluoromethyl)pyrimidin-2-yl)amino) butanoic acid]
IC50 [1]: < 50 nM

SMILES: COC(=O)c1ccc2c(c1)NC(=O)/C2=C(\Nc1ccc(N(C)C(=O)CN2CCN(C)CC2)cc1)c1ccccc1 [nintedanib]
lung Col1a1 expression [2]: slight increase
lung slice Col1a1 expression [3]: slight increase
expression of COL1A1 (treatment alone) [4]: did not significantly reduce
side effects [5]: numerous side effects
therapeutic efficacy [5]: less therapeutic efficacy than desired

SMILES: Cc1ccc(=O)n(-c2ccccc2)c1 [pirfenidone]
lung Col1a1 expression [2]: slight increase
lung slice Col1a1 expression [3]: slight increase
expression of COL1A1 (treatment alone) [4]: did not significantly reduce
side effects [5]: numerous side effects
therapeutic efficacy [5]: less therapeutic efficacy than desired

SMILES: CC(C)(C)c1cc(Br)cc([C@H](CC(=O)O)NC(=O)CNC(=O)c2cc(O)cc(NC3=NCC(O)CN3)c2)c1 (stereo partly drawn) [second pan-av small molecule inhibitor, (3S)—N-[3-hydroxy-5-[(1,4,5,6-tetrahydro-5-hydroxy-2-pyrimidinyl)amino]benzoyl]glycyl-3-[3-bromo-5-(1,1-dimethylethyl)phenyl]-β-alanine]
Type I Collagen gene Col1a1 expression [6]: reduced Type I Collagen gene Col1a1 expression

SMILES: Cc1cccc(-c2n[nH]cc2-c2ccc(F)c(-c3cnn(CCO)c3)c2)n1 [small molecule ALK5 inhibitor, 4-[2-Fluoro-5-[3-(6-methyl-2-pyridinyl)-1H-pyrazol-4-yl]phenyl]-1H-pyrazole-1-ethanol, reference compound]
Type I Collagen gene Col1a1 expression [6]: greatest decrease
lung Col1a1 expression [7]: greatest decrease
lung slice Col1a1 expression [3]: substantial, statistically significant (p<0.0001 vs vehicle) decrease
lung Col1a1 expression ([4]; human IPF slices, 3 days, 3G9 ≥400 ng/mL, compound 5 179 nM, ALK5 inhibitor 1 μM, FIG. 6C): decrease in lung Col1a1 expression

Other lines, results leading:

IC50 [1]: < 50 nM
SMILES: O=C(O)[C@H](CCN(CCCF)CCCCc1ccc2c(n1)NCCC2)Nc1ncc(C(F)(F)F)cn1 [Compound 137, (S)-4-((3-fluoropropyl) (4-(5,6,7,8-tetrahydro-1,8-naphthyridin-2-yl)butyl)amino)-2-((5-(trifluoromethyl)pyrimidin-2-yl)amino) butanoic acid]

IC50 [1]: < 50 nM
SMILES: CN(C)C(=O)CN(CCCCc1ccc2c(n1)NCCC2)CC[C@H](Nc1ncnc2c1cnn2C)C(=O)O [Compound 140, (S)-4-((2-(dimethylamino)-2-oxoethyl) (4-(5,6,7,8-tetrahydro-1,8-naphthyridin-2-yl)butyl)amino)-2-((1-methyl-1H-pyrazolo[3,4-d]pyrimidin-4-yl)amino) butanoic acid]

IC50 [1]: > 1000 nM
SMILES: O=C(O)[C@H](CCN(CCCCc1ccc2c(n1)NCCC2)CC(F)F)Nc1cc(-c2ccccc2)ncn1 [Compound 142, (S)-4-((2,2-difluoroethyl) (4-(5,6,7,8-tetrahydro-1,8-naphthyridin-2-yl)butyl)amino)-2-((6-phenylpyrimidin-4-yl)amino) butanoic acid]

IC50 [1]: < 50 nM
SMILES: CN(C)C(=O)CN(CCCCc1ccc2c(n1)NCCC2)CC[C@H](Nc1ccnc(C(F)(F)F)n1)C(=O)O [Compound 145, (S)-4-((2-(dimethylamino)-2-oxoethyl) (4-(5,6,7,8-tetrahydro-1,8-naphthyridin-2-yl)butyl)amino)-2-((2-(trifluoromethyl)pyrimidin-4-yl)amino) butanoic acid]

IC50 [1]: > 1000 nM
SMILES: O=C(O)[C@H](CCN(CCCCc1ccc2c(n1)NCCC2)CC(F)F)Nc1ncc(C2CC2)cn1 [Compound 146, (S)-2-((5-cyclopropylpyrimidin-2-yl)amino)-4-((2,2-difluoroethyl) (4-(5,6,7,8-tetrahydro-1,8-naphthyridin-2-yl)butyl)amino) butanoic acid]
